According to patent publication US8765746B2 (Millennium Pharmaceuticals, Inc., priority 2010, dated 2014):

Tests used:
Assay type in all cases: biochemical
PI3Kdelta = biological target: T1, PI3Kdelta (Homo sapiens, UniProt O00329); test: Human PI3K delta enzyme assay (HTRF, as for PI3K alpha); details: for inhibition at 1.11 µM: read-out: PI3Kdelta % inh; for PI3Kdelta % inh: at 1.11 μM
T1 construct: His (N); host or cells: SF9 insect cells (baculovirus)
In short: (§1)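 N-His p110β/δ co-expressed with untagged p85 in Sf9, p110γ alone. Enzyme 5.25 nM (β), 0.75 nM (δ), 5 nM (γ), with ATP 25 uM and di-C8 PI(4,5)P2 3.5 uM (added-solution levels), pH 7.00, 30 min RT. HTRF read-out: biotin-PIP3, GST-GRP-1 PH domain, Eu anti-GST, streptavidin-XL.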

PI3Kbeta = biological target: T2, PI3Kbeta (Homo sapiens, UniProt P42338); test: Human PI3K beta enzyme assay (HTRF, as for PI3K alpha); details: for inhibition at 1.11 µM: read-out: PI3Kbeta % inh; for IC50: read-out: IC50 (inhibit PI3Kbeta); for inhibition at 1.11 µM / PI3Kbeta % inh: at 1.11 μM
T2 construct: His (N); host or cells: SF9 insect cells (baculovirus)
In short: as §1

PI3Kgamma = biological target: T3, PI3Kgamma (Homo sapiens, UniProt P48736); test: Human PI3K gamma enzyme assay (HTRF, as for PI3K alpha); details: for inhibition at 1.11 µM: read-out: PI3Kgamma % inh; for PI3Kgamma % inh: at 1.11 μM
T3 construct: His (N); host or cells: SF9 insect cells (baculovirus)
In short: as §1

PI3Kalpha = biological target: T4, PI3Kalpha (Homo sapiens, UniProt P42336); test: Human PI3Kα enzyme assay (HTRF); details: for inhibition at 1.11 µM: read-out: PI3Kalpha % inh; for PI3Kalpha % inh: at 1.11 μM
T4 construct: His (N); host or cells: SF9 insect cells (baculovirus)
In short: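 His-tagged p110α co-expressed with p85 in Sf9 cells was reacted for 30 min at room temperature in pH 7.00 Hepes buffer with 10 mM MgCl2. Addition solutions held 25 uM ATP, 3.5 uM di-C8 PI(4,5)P2 and 0.4875 nM enzyme. The reaction was quenched with EDTA/biotin-PIP3 and detected by HTRF (GST-GRP-1 PH domain, streptavidin-XL, Eu anti-GST) after 1 h.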

VPS34 = biological target: T5, VPS34 (Homo sapiens, UniProt Q8NEB9); test: Human VPS34 enzyme assay (Adapta Universal Kinase Assay); details: for inhibition at 1.11 µM: 1 h, read-out: VPS34 % ihn; for VPS34 % ihn: at 1.11 μM
T5 construct: GST (N); host or cells: SF9 insect cells (baculovirus)
Procedure: VPS34 (accession number GB:BC033004) is cloned into pDEST20-Thombin as N-terminal GST tagged fusion proteins using the Gateway system (Invitrogen, catalog#11804-013). The sequences are verified before recombinant protein expression using the Baculovirus Expression System with Gateway® Technology.
For expression VPS34 was infected at 1MOI in SF9 cells and harvested 72 hours post infection.
For purification, VPS34 is purified by Glutathione Sepharose 4 Fast Flow (GE Healthcare #17-5132-03) followed by HiTrap Q (GE Healthcare #17-1153-01).
3) VPS34 is assayed using Adapta™ Universal Kinase Assay Kit (Invitrogen).
4) Human VPS34 enzyme assay method
100 mL compounds in DMSO are added to wells of a 384 well microtitre plate (Greiner 780076). At room temperature: 5 ul VPS34 reaction buffer (Invitrogen Assay Buffer Q (diluted 1 in 5 with nanopure water) plus 2 mM DTT and 2 mM MnCl2) containing ATP (20 uM, Promega) and 200 uM PI-PS substrate (Invitrogen PV5122) is added followed immediately by 5 ul VPS34 reaction buffer (as above) containing VPS34 (5 nM, Millennium Protein Sciences Group) and the mixture is incubated with shaking at room temperature for 1 hour. Then 5 ul VPS34 stop-detect mix (as per Invitrogen Adapta Assay kit (PV5009) instructions (contains kinase quench buffer, TR-FRET buffer, Adapta Eu anti-ADP antibody and Alexa Fluor 647 ADP tracer)) is added to quench the reaction. The plates are then incubated for 30 minutes at room temperature with shaking and then read on a BMG PheraStar Plus reader.

T4 sequence (P42336 whole entry): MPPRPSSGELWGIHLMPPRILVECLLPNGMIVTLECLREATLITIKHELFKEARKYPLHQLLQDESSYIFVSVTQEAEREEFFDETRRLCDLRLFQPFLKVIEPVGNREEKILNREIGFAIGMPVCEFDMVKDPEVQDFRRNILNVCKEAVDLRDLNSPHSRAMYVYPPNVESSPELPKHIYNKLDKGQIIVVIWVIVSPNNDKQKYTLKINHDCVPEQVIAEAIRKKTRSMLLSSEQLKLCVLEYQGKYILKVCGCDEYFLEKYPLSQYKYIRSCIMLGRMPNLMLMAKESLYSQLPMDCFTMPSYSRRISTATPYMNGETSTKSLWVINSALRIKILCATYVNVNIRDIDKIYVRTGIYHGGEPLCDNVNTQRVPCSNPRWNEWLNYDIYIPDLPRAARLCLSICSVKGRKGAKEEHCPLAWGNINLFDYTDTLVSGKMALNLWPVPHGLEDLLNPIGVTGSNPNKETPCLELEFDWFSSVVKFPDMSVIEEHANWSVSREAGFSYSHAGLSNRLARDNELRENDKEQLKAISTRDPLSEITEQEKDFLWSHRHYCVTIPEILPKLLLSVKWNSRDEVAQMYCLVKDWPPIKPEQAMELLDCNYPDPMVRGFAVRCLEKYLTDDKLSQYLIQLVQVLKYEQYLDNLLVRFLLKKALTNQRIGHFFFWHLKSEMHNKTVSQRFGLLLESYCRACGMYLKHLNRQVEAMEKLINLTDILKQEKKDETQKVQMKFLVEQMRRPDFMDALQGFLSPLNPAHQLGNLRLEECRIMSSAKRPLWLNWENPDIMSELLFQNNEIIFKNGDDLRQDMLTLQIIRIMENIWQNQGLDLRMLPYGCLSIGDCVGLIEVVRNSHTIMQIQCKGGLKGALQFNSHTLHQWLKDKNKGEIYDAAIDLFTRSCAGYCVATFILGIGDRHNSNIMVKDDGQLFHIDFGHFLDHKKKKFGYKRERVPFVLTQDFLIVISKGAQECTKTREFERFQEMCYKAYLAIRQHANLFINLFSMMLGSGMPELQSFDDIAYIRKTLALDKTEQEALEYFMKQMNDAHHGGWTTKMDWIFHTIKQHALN
T4 sequence (P27986 whole entry partner): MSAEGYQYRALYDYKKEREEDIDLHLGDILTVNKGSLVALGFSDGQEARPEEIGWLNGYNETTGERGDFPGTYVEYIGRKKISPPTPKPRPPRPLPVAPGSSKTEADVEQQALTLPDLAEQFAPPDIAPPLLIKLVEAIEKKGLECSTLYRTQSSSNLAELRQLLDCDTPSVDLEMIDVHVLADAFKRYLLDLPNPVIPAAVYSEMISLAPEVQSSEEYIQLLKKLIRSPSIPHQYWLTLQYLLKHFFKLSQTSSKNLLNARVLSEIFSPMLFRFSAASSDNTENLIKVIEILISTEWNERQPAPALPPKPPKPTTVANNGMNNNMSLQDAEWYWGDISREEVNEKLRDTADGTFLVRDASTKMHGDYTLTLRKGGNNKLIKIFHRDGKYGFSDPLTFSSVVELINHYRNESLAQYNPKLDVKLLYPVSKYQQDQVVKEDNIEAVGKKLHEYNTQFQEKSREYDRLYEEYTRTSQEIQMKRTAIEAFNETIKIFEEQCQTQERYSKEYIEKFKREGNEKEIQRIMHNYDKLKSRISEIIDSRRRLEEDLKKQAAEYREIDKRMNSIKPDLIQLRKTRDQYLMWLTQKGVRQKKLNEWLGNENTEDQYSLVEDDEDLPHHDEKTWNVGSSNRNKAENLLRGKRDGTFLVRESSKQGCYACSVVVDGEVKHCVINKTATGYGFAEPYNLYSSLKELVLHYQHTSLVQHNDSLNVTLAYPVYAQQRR
T3 sequence (P48736 whole entry): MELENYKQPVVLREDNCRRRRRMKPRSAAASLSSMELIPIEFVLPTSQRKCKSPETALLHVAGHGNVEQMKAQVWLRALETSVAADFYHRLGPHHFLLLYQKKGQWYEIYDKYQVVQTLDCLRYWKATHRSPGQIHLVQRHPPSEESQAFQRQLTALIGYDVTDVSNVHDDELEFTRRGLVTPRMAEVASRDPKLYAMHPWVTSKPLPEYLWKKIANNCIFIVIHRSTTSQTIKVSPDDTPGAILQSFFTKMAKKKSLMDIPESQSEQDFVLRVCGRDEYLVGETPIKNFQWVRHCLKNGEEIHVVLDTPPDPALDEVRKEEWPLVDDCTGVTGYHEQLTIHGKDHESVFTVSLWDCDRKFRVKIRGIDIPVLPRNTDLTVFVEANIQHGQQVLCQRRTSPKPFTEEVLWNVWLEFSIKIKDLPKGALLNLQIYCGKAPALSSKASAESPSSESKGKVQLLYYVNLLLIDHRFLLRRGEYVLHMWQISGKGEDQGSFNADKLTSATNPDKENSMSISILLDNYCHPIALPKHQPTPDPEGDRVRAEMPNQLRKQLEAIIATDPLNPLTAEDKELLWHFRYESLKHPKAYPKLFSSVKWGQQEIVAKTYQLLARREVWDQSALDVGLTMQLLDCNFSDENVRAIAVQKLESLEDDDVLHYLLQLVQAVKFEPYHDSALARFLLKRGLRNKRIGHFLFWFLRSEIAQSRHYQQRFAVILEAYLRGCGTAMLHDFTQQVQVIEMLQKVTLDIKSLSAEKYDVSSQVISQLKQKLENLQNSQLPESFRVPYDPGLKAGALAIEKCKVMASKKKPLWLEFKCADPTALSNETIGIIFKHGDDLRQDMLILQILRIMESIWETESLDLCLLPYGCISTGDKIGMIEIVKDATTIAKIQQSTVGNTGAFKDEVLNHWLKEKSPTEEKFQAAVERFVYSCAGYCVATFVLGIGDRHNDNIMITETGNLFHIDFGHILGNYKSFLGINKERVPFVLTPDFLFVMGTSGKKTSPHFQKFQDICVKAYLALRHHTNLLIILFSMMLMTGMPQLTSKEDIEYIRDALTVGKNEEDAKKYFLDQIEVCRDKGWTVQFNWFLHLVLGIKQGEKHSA
T1 sequence (O00329 whole entry): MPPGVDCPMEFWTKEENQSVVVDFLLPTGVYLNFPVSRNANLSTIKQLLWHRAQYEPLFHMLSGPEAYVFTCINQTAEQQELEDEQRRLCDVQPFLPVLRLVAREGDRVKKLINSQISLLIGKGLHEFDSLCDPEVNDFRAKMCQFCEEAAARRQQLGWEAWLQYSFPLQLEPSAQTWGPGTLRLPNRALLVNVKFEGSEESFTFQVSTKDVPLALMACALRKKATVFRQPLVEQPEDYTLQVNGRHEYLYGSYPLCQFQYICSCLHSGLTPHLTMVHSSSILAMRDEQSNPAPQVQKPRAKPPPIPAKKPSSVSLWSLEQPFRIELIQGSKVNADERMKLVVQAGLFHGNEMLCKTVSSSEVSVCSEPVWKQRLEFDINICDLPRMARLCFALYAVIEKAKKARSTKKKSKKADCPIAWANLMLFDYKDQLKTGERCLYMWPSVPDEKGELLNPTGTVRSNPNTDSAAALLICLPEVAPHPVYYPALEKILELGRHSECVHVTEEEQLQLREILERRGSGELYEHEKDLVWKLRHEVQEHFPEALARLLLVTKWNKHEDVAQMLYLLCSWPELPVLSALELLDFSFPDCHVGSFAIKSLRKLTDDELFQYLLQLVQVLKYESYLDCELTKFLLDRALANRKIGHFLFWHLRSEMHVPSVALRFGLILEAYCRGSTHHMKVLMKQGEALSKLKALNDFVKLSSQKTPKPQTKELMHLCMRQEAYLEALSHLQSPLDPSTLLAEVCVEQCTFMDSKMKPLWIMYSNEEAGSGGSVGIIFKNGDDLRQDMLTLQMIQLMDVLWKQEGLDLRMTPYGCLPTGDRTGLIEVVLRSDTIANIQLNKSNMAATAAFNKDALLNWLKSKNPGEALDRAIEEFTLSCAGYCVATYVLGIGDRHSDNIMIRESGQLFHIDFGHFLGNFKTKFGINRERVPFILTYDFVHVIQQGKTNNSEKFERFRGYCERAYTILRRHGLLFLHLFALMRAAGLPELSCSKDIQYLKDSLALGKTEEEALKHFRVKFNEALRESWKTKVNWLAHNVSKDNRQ
T1 sequence (P27986 whole entry partner): as the sequence (P27986 whole entry partner) above
T2 sequence (P42338 whole entry): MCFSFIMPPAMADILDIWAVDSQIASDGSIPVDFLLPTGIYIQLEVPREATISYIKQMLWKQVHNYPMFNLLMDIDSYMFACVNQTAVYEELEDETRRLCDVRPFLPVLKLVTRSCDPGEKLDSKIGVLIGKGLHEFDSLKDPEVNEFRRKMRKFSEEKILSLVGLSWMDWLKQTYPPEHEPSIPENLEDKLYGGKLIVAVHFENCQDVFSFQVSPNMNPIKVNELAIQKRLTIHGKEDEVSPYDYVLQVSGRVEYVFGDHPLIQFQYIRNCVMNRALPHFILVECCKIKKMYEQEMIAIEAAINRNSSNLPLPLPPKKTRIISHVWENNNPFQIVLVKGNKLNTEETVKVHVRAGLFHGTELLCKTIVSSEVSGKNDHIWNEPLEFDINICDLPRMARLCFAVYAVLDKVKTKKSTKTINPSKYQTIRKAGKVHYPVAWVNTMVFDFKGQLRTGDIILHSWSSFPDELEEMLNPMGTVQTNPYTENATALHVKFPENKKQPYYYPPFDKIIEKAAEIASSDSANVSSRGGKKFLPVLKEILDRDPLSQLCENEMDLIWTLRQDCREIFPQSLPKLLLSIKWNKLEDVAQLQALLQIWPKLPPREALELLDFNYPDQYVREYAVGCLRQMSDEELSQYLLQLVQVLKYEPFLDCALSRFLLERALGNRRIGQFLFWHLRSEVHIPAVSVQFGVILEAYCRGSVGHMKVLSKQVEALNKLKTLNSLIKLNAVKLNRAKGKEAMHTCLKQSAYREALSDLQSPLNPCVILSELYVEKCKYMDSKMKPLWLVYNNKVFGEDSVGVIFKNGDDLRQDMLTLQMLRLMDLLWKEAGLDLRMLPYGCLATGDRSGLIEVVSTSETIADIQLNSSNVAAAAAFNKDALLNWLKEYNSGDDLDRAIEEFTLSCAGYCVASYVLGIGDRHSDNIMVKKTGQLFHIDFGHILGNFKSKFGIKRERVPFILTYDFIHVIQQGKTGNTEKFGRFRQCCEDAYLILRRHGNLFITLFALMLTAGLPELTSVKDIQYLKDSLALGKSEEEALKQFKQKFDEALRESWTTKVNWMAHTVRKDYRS
T2 sequence (P27986 whole entry partner): as the sequence (P27986 whole entry partner) above

SMILES | inhibition at 1.11 µM (PI3Kdelta) [%] | inhibition at 1.11 µM (PI3Kbeta) [%] | IC50 (PI3Kbeta) [nM] | inhibition at 1.11 µM (PI3Kgamma) [%] | inhibition at 1.11 µM (PI3Kalpha) [%] | inhibition at 1.11 µM (VPS34) [%] | PI3Kdelta % inh (PI3Kdelta) [%] | PI3Kbeta % inh (PI3Kbeta) [%] | PI3Kgamma % inh (PI3Kgamma) [%] | PI3Kalpha % inh (PI3Kalpha) [%] | VPS34 % ihn (VPS34) [%]
O=C1CCCC(O)(c2ccc(Cl)cc2)c2cc(-c3ccncc3)sc21 (stereo not shown) [Compound 15, 4-(4-chlorophenyl)-4-hydroxy-2-pyridin-4-yl-4,5,6,7-tetrahydro-8H-cyclohepta[b]thiophen-8-one] | 26.4 | 65 | 100 to 1000 | 4 | 3.1 | 2 | – | – | – | – | –
CC1(C)NC(=O)c2sc(-c3ccncc3)cc2C1c1ccc(Cl)cc1 (stereo not shown) [Compound 191, 4-(4-chlorophenyl)-5,5-dimethyl-2-(pyridin-4-yl)-5,6-dihydrothieno[2,3-c]pyridin-7(4H)-one] | 30.3 | 79.4 | – | 6.39 | 9.58 | 7.04 | – | – | – | – | –
O=C1NCC(c2ccc(Cl)cc2)c2cc(-c3ccncc3)sc21 (stereo not shown) [Compound 30] | 36 | 94.9 | < 100 | 11.2 | 6.3 | – | – | – | – | – | −0.200
O=S1(=O)NC=C(c2ccc(Cl)cc2)c2cc(-c3ccncc3)sc21 [Compound 27, 4-(4-chlorophenyl)-6-pyridin-4-yl-2H-thieno[3,2-e][1,2]thiazine 1,1-dioxide] | 46 | 98.3 | 100 to 1000 | 12.3 | 4.9 | 8.5 | – | – | – | – | –
CN1CCC(c2ccc(Cl)cc2)c2cc(N3CCOCC3)sc2C1=O (stereo not shown) [Compound 141, 4-(4-chlorophenyl)-7-methyl-2-(morpholin-4-yl)-4,5,6,7-tetrahydro-8H-thieno[2,3-c]azepin-8-one] | 47.2 | 77 | – | 6.82 | 4.69 | 15.1 | – | – | – | – | –
C[Si](C)(C)CCOCN1CC(O)(c2ccc3ccccc3c2)c2cc(N3CCOCC3)sc2S1(=O)=O (stereo not shown) [Compound 144, 6-(morpholin-4-yl)-4-(2-naphthyl)-2-{[2-(trimethylsilyl)ethoxy]methyl}-3,4-dihydro-2H-thieno[3,2-e][1,2]thiazin-4-ol 1,1-dioxide] | 111 | 101 | – | 67.8 | 41.6 | 5.73 | – | – | – | – | –
CC1(C)C(=O)c2sc(-c3ccncc3)cc2C1c1ccc(Cl)cc1 (stereo not shown) [Compound 147, 4-(4-chlorophenyl)-5,5-dimethyl-2-(pyridin-4-yl)-4H-cyclopenta[b]thiophen-6(5H)-one] | 9.91 | 65.7 | – | 2.45 | 3.15 | 9.65 | – | – | – | – | –
O=C1CC(c2ccc(Cl)cc2)c2cc(-c3ccncc3)sc2N1 (stereo not shown) [Compound 182, 4-(4-chlorophenyl)-2-(pyridin-4-yl)-4,5-dihydrothieno[2,3-b]pyridin-6(7H)-one] | 48.5 | 61.2 | – | 3.51 | 2.99 | 14 | – | – | – | – | –
O=C1CC(c2ccc(Cl)cc2)c2cc(-c3ccncc3)sc21 (stereo not shown) [Compound 23, 4-(4-chlorophenyl)-2-(pyridin-4-yl)-4H-cyclopenta[b]thiophen-6(5H)-one] | 23 | 92.8 | 100 to 1000 | 10.9 | 3.1 | -2 | – | – | – | – | –
O=C1NCCC(c2ccc(Cl)cc2)c2nc(N3CCOCC3)sc21 (stereo not shown) [Compound 180, 8-(4-chlorophenyl)-2-(morpholin-4-yl)-5,6,7,8-tetrahydro-4H-[1,3]thiazolo[5,4-c]azepin-4-one] | 87.3 | 97.4 | – | 28.7 | 13.9 | 55.8 | – | – | – | – | –

Next, values leading:

inhibition at 1.11 µM (PI3Kdelta) [%] | inhibition at 1.11 µM (PI3Kbeta) [%] | IC50 (PI3Kbeta) [nM] | inhibition at 1.11 µM (PI3Kgamma) [%] | inhibition at 1.11 µM (PI3Kalpha) [%] | inhibition at 1.11 µM (VPS34) [%] | PI3Kdelta % inh (PI3Kdelta) [%] | PI3Kbeta % inh (PI3Kbeta) [%] | PI3Kgamma % inh (PI3Kgamma) [%] | PI3Kalpha % inh (PI3Kalpha) [%] | VPS34 % ihn (VPS34) [%] | SMILES
60.1 | 90.4 | – | 20.6 | 26.9 | 9 | – | – | – | – | – | O=C1CC(c2ccc3ccccc3n2)c2cc(N3CCOCC3)sc21 (stereo not shown) [Compound 183]
– | – | 100 to 1000 | – | – | – | 31.200 | 69.800 | 4.500 | 3.700 | 10.900 | O=C1NCCC(c2ccc(Cl)cc2)c2cc(-c3ccncc3)sc21 (single isomer, unassigned) [Compound 25, 4-(4-chlorophenyl)-2-pyridin-4-yl-4,5,6,7-tetrahydro-8H-thieno[2,3-c]azepin-8-one]
14 | 76.8 | – | 5.01 | -2.24 | 8.39 | – | – | – | – | – | CN1CC(c2ccc(Cl)cc2)c2cc(-c3ccncc3)sc2C1=O (stereo not shown) [Compound 164]
44.5 | 71.8 | – | 16.7 | 22.6 | 24.4 | – | – | – | – | – | CN(C)C(=O)[C@@H]1NC(=O)c2sc(N3CCOCC3)cc2[C@H]1c1ccc(Cl)cc1 [Compound 125]
55.7 | 102 | < 100 | 10.8 | 3.1 | 6.6 | – | – | – | – | – | O=C1CCC(c2ccc(Cl)cc2)c2cc(-c3ccncc3)sc21 (racemic) [Compound 13, 4-(4-chlorophenyl)-2-pyridin-4-yl-5,6-dihydro-1-benzothiophen-7(4H)-one]
– | – | – | – | – | – | 88.59 | 101.66 | 50.45 | 18.36 | −1.31 | O=C1CC(c2ccc(Cl)cc2)c2cc(N3CCOCC3)sc21 (stereo not shown) [Compound 145]
37.9 | 105 | < 100 | 11.7 | 6.6 | 1.2 | – | – | – | – | – | O=S1(=O)NCC(O)(c2ccc(Cl)cc2)c2cc(-c3ccncc3)sc21 (racemic) [Compound 26, 4-(4-chlorophenyl)-6-pyridin-4-yl-3,4-dihydro-2H-thieno[3,2-e][1,2]thiazin-4-ol 1,1-dioxide]
54.2 | 98.1 | – | 16.9 | 13.8 | -6.9 | – | – | – | – | – | O/N=C1\CCC(c2ccc(Cl)cc2)c2cc(-c3ccncc3)sc21 (stereo not shown) [Compound 24]
– | – | – | – | – | – | 75.35 | 98.08 | 36.62 | 39.72 | 26.74 | NC(=O)[C@@H]1NC(=O)c2sc(N3CCOCC3)cc2[C@H]1c1ccc(Cl)cc1 [Compound 126]
60.3 | 71.6 | 100 to 1000 | 5.2 | 36 | -4.2 | – | – | – | – | – | Cc1nn2ccccc2c1-c1nc2c(s1)NC(=O)CCC2c1ccc(Cl)cc1 (stereo not shown) [Compound 11, 8-(4-chlorophenyl)-2-(2-methylpyrazolo[1,5-a]pyridin-3-yl)-4,6,7,8-tetrahydro-5H-[1,3]thiazolo[5,4-b]azepin-5-one]
67.9 | 98.3 | – | 18.1 | 8.99 | 19.5 | – | – | – | – | – | CC1(C)CNC(=O)c2sc(-c3ccncc3)cc2C1c1ccc(Cl)cc1 (stereo not shown) [Compound 140, 4-(4-chlorophenyl)-5,5-dimethyl-2-pyridin-4-yl-4,5,6,7-tetrahydro-8H-thieno[2,3-c]azepin-8-one]
– | – | – | – | – | – | 26.46 | 59.86 | 3.89 | 2.32 | −2.80 | O=C1CCC(O)C(c2ccc(Cl)cc2)c2cc(-c3ccncc3)sc21 (stereo not shown) [Compound 129]
